{"source": "paper PMC4000412", "about": "“Novel LHRH-receptor-targeted cytolytic peptide, EP-100: first-in-human phase I study in patients with advanced LHRH-receptor-expressing solid tumors” (Cancer Chemotherapy and Pharmacology, 2014)", "key": {"[1]": {"assay": "Plasma pharmacokinetics of EP-100 after IV infusion (phase I)", "assay_type": "in vivo, human", "settings": "for time at which C max was reached: majority of patients", "method": "Blood samples (approximately 5 mL) were collected on Cycle 1 Day 1 at the following times: pre-dose, 10 and 20 min after start of EP-100 infusion, prior to completion of the infusion (−3 min) and 2, 15, 30, 60 (±2), 120 (±2) and 240 (±5) min after the infusion. Concentrations of EP-100 in EDTA-anticoagulated plasma were assayed by a validated HPLC-Mass Spectrometry method developed at Covance (Indianapolis, IN). EP-100 and the internal standard were extracted from human plasma by solid-phase extraction and analyzed using liquid chromatography with tandem mass spectrometric detection (MS/MS). The lower limit of quantitation for EP-100 in human plasma was 0.025 μg/mL, with linearity demonstrable to 5 μg/mL (upper limit of quantitation). Plasma PK analysis for EP-100 was performed using non-compartmental methods with Phoenix™ WinNonlin® version 6.1 or higher (Pharsight Corp., Mountain View, CA). Concentration–time profiles were constructed from the plasma sample data. Estimates of the area under the plasma concentration time curve (AUC) and slope of the terminal decay phase were used to calculate values of the following pharmacokinetic parameters: apparent terminal phase half-life (t 1/2), total body clearance (CL), apparent time of maximum concentration (T max) and apparent volume of distribution (V z). Means and standard deviations are presented where applicable. Phoenix™ WinNonlin® was used to identify the terminal linear phase of the concentration–time profile. The number of points chosen was determined based on the largest regression coefficient, R ^2, obtained. A minimum of three data points was used for determination of λ z, the elimination rate constant, determined by the slope of the terminal linear phase. The R ^2 had to be ≥0.8 to be included in the pharmacokinetic results. Summary statistics were prepared using Microsoft Excel 2007, and graphics were prepared with SigmaPlot™ version 11.2 (Systat Software Inc., Richmond, CA)."}, "[2]": {"test_system": "pituitary gonadotropes (LHRH receptors)", "assay": "Pharmacodynamics: serum FSH, LH and other pituitary hormones in patients", "assay_type": "in vivo, human", "method": "FSH and LH levels as well as testosterone in men and estradiol levels in women were obtained on Days 1, 8, 15 and 22 within 24 h prior to dosing. Testosterone and estradiol levels were measured on Day 1 only after Cycle 1 and at off study assessment. Blood was collected for circulating tumor cells (CTC) prior to dosing on Day 1 of the first cycle. Patients with positive CTC at baseline also had blood collected for CTC analysis prior to dosing on Day 1 of each subsequent cycle. Additional studies included plasma cortisol, adrenocorticotropin (ACTH), thyroxine (T4) and thyroid-stimulating hormone (TSH) and blood for tumor specific biomarker analysis (at investigator’s discretion), all obtained prior to Day 1 dosing with each cycle and at off study assessment. Samples for antidrug antibodies (ADA) were collected on Day 1 of Cycle 1 and then on Day 1 of every odd cycle."}}, "note": "Like-named read-outs stand apart in the source and are kept apart here. Peptide text beside a SMILES is read from it."}
{"smiles": "CC(C)C[C@H](NC(=O)CNC(=O)[C@H](Cc1ccc(O)cc1)NC(=O)[C@H](CO)NC(=O)[C@H](Cc1c[nH]c2ccccc12)NC(=O)[C@H](Cc1c[nH]cn1)NC(=O)[C@@H]1CCC(=O)N1)C(=O)N[C@@H](CCCNC(=N)N)C(=O)N1CCC[C@H]1C(=O)NCC(=O)N[C@@H](CCCCN)C(=O)N[C@@H](Cc1ccccc1)C(=O)N[C@@H](C)C(=O)N[C@@H](CCCCN)C(=O)N[C@@H](Cc1ccccc1)C(=O)N[C@@H](C)C(=O)N[C@@H](CCCCN)C(=O)N[C@@H](CCCCN)C(=O)N[C@@H](Cc1ccccc1)C(=O)N[C@@H](C)C(=O)N[C@@H](CCCCN)C(=O)N[C@@H](Cc1ccccc1)C(=O)N[C@@H](C)C(=O)N[C@@H](CCCCN)C(=O)N[C@@H](CCCCN)C(=O)N[C@@H](Cc1ccccc1)C(=O)N[C@@H](C)C(=O)N[C@@H](CCCCN)C(=O)O", "note": "[EP-100] (HELM PEPTIDE1{[Glp].H.W.S.Y.G.L.R.P.G.K.F.A.K.F.A.K.K.F.A.K.F.A.K.K.F.A.K}$$$$V2.0; C-terminus assumed)", "values": [{"measurement": "increase in C max with dose", "setting": "[1]; 0.6-40 mg/m^2, data highly variable", "value": "slightly greater than dose proportional"}, {"measurement": "time at which C max was reached", "setting": "[1]; EP-100 given over 30 min IV", "value": "20 to 40", "unit": "min"}, {"measurement": "time at which C max was reached", "setting": "[1]; EP-100 given over 60 min IV", "value": "40 to 60", "unit": "min"}, {"measurement": "plasma concentrations versus concentrations active in vitro", "setting": "[1]; doses of 5.2 mg/m^2 and above", "value": "reached the predicted “therapeutic” concentrations"}, {"measurement": "volume of distribution, V z", "setting": "[1]; doses of 7.8 to 17 mg/m2 IV", "value": "2,400 to 2,666 mL"}, {"measurement": "clearance", "setting": "[1]; human, plasma, 0.6 mg/m2, dose 0.6 mg/m^2 IV", "value": 299, "unit": "mL/min"}, {"measurement": "Vd", "setting": "[1]; human, plasma, 0.6 mg/m2, dose 0.6 mg/m^2 IV, read-out: volume of distribution, V z", "value": 4.35, "unit": "L"}, {"measurement": "clearance", "setting": "[1]; human, plasma, 5.2 mg/m2, dose 5.2 mg/m^2 IV", "value": 143, "unit": "mL/min"}, {"measurement": "Vd", "setting": "[1]; human, plasma, 5.2 mg/m2, dose 5.2 mg/m^2 IV, read-out: volume of distribution, V z", "value": 1.56, "unit": "L"}, {"measurement": "clearance", "setting": "[1]; human, plasma, 7.8 mg/m2, dose 7.8 mg/m^2 IV", "value": 223, "unit": "mL/min"}, {"measurement": "clearance", "setting": "[1]; human, plasma, 11.7 mg/m2, dose 11.7 mg/m^2 IV", "value": 222, "unit": "mL/min"}, {"measurement": "clearance", "setting": "[1]; human, plasma, 17 mg/m2, dose 17 mg/m^2 IV", "value": 110, "unit": "mL/min"}, {"measurement": "AUC(0-inf)", "setting": "[1]; human, plasma, 40 mg/m2, highest dose level tested (40 mg/m^2), IV infusion, mean ± SD, read-out: mean AUC0–∞ (converted)", "value": 5430, "unit": "ng·h/mL"}, {"measurement": "Cmax", "setting": "[1]; human, plasma, 40 mg/m2, highest dose level tested (40 mg/m^2), IV infusion, mean ± SD, read-out: mean C max", "value": 4760, "unit": "ng/mL"}, {"measurement": "half-life", "setting": "[1]; human, plasma, 40 mg/m2, patients, IV infusion, highest dose tested (40 mg/m^2), read-out: terminal half-life", "value": "~15", "unit": "min"}, {"measurement": "Vd", "setting": "[1]; human, plasma, doses of 7.8 to 17 mg/m2 IV, read-out: volume of distribution, V z per body weight", "value": "~0.06", "unit": "L/kg"}, {"measurement": "reduction from baseline FSH", "setting": "[2]; one breast cancer patient, dose level 7.8 mg/m^2, FSH 127–15 U/L", "value": 88, "unit": "%"}, {"measurement": "LH reduction", "setting": "[2]; one breast cancer patient, dose level 7.8 mg/m^2, LH 24–1 U/L", "value": 96, "unit": "%"}, {"measurement": "effect on other pituitary hormones (ACTH and TSH)", "setting": "[2]; patients", "value": "not affected"}, {"measurement": "FSH decrease", "setting": "[2]; second breast cancer patient, 11.7 mg/m^2, FSH 21–4 U/L", "value": 81, "unit": "%"}, {"measurement": "FSH decrease", "setting": "[2]; third breast cancer patient, 26 mg/m^2, FSH 27–4 U/L", "value": 85, "unit": "%"}, {"measurement": "LH decrease", "setting": "[2]; third breast cancer patient, 26 mg/m^2, LH 27–1.3 U/L", "value": 95, "unit": "%"}, {"measurement": "patients with sustained decreases in LH and FSH", "setting": "[2]; three patients of 37, dose levels 11.7 and 26 mg/m^2, all breast cancer", "value": 8, "unit": "%"}]}
